Source: patent US9005579B2 (priority 2010, dated 2015)

Assays:
sortase = sortase (Staphylococcus aureus, UniProt Q2FV99); conditions: in vitro and in vivo; react with Cys184; cited from earlier work
E. coli O111:B4 = conditions: overnight incubation, inhibitory concentrations; cited from earlier work
[1] = D-Ala-D-Ala termini replaced with D-Ala-D-Lac in VRE; cited from earlier work
[2] = system: Staphylococci (protein A negative S. aureus strain 8325-4); experiment: Ampicillin and penicillin MIC (serial 2-fold dilutions, microtiter plate); format: cell-based, Staphylococcus aureus; conditions: for highest dilution of antibiotic showing normal growth (sub-MIC used in experiments): 12 h, BHI media; for growth of staphylococci in the presence of sub-MIC of antibiotic: no antibody
Method: The MIC dose of two cell wall affecting antibiotics, ampicillin and penicillin, was determined for the protein A negative S. aureus strain 8325-4.
Serial 2-fold dilutions of penicillin and ampicillin were prepared in a microtiter plate. Overnight culture of Staphylococci were diluted 1:100 in BHI media and 100 ul was added to each well and the plate incubated for 12 h. Wells without antibiotic served as controls. The highest dilution of antibiotic showing normal growth was used for further experiments. Ampicillin at 0.1 ug/ml and Penicillin at 0.02 ug/ml were used in these experiments.

[3] = system: Protein A negative Staphylococcus aureus derived from strain 8325-4; experiment: Growth of S. aureus with sub-MIC antibiotic with or without mouse anti-sortase monoclonal antibody (OD600, 12 h); format: cell-based; conditions: sub-MIC antibiotic + tissue culture medium, no Ab
Excerpt: In a separate set of experiments, we assessed the effect of anti-sortase antibodies, in the presence and absence of antibiotic, on the growth of the staphylococci. Monoclonal supernatants were used for these experiments and tissue culture media used as controls. […] Exemplary growth curve results with monoclonal antibody 7C2 at 1:10 dilution are depicted in FIG. 5. The growth results are tabulated in TABLE 3 below based on final OD readings of multiple growth experiments. In each instance, significant growth inhibition is observed with a combination of sub-MIC antibiotics and anti-sortase antibody.
Protein A negative Staphylococcus aureus derived from strain 8325-4 was grown to OD600 0.5 in Brain-Heart Infusion medium at 37° C. (Patel A H et al (1987) Infect Immun 55(12):3103-3110). When applicable, antibiotics were added to the media at sub-MIC doses.
Mouse anti-sortase monoclonals were added to each cell-antibiotic culture at a dilution of either 1:10 or 1:100. OD600 values were measured every 5 mins for 12 hours in a 96-well spectrophotometer.

sortase, sequence (Q2FV99 whole entry): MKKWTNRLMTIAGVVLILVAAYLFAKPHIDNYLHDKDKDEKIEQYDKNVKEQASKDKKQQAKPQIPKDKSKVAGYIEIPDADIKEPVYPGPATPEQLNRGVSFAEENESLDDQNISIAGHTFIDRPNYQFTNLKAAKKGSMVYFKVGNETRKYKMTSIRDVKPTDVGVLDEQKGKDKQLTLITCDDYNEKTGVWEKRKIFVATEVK

Q: Which sortase inhibition (sortase) does the source give for `CS(=O)(=O)SCCS(=O)(=O)O` [(2-sulfonatoethyl)methane-thiosulfonate] here?
A: inhibit sortase in vitro and in vivo

Q: For `C[N+](C)(C)CCSS(C)(=O)=O` [MTSET], which sortase inhibition (sortase) is on record?
A: inhibit sortase in vitro and in vivo

Q: Which “HA-1A binding after exposure to the antibiotic” value (E. coli O111:B4) does the source give for `CC(C)(O/N=C(\C(=O)N[C@@H]1C(=O)N2C(C(=O)[O-])=C(C[n+]3ccccc3)CS[C@H]12)c1csc(N)n1)C(=O)O` [caftazidime] here?
A: dose-dependent enhancement of HA-1A binding

Q: For gentamicin, which “HA-1A binding after exposure to the antibiotic” value (E. coli O111:B4) is on record?
A: not enhanced

Q: For `CN[C@H](CC(C)C)C(=O)N[C@H]1C(=O)N[C@@H](CC(N)=O)C(=O)N[C@H]2C(=O)N[C@H]3C(=O)N[C@H](C(=O)N[C@H](C(=O)O)c4cc(O)cc(O)c4-c4cc3ccc4O)[C@H](O)c3ccc(c(Cl)c3)Oc3cc2cc(c3O[C@@H]2O[C@H](CO)[C@@H](O)[C@H](O)[C@H]2O[C@H]2C[C@](C)(N)[C@H](O)[C@H](C)O2)Oc2ccc(cc2Cl)[C@H]1O` [vancomycin], which “decrease in vancomycin affinity” value [1] is on record?
A: 1000 fold

Q: With Penicillin [PCN] as the compound, how does the “highest dilution of antibiotic showing normal growth (sub-MIC used in experiments)” value [2] read?
A: 0.02 µg/mL

Q: What about the “growth of staphylococci in the presence of sub-MIC of antibiotic” value [2] of the same compound?
A: grow similar to control bacteria without antibiotic

Q: What about the “Average OD” value ([3]; control of Ab 1:10) of the same compound?
A: 0.2446

Q: And the “Final OD Reading 1” value ([3]; control of Ab 1:10)?
A: 0.218

Q: What about the “Final OD Reading 2” value ([3]; control of Ab 1:10) of the same compound?
A: 0.2712

Q: What about the “Average OD” value ([3]; control of Ab 1:100) of the same compound?
A: 0.3534

Q: What about the “Final OD Reading 1” value ([3]; control of Ab 1:100) of the same compound?
A: 0.3508

Q: What about the “Final OD Reading 2” value ([3]; control of Ab 1:100) of the same compound?
A: 0.3561

Q: What does the source list for `CC1(C)S[C@@H]2[C@H](NC(=O)[C@H](N)c3ccccc3)C(=O)N2[C@H]1C(=O)O` [AMP, Ampicillin]?
A: highest dilution of antibiotic showing normal growth (sub-MIC used in experiments) [2]: 0.1 µg/mL; growth of staphylococci in the presence of sub-MIC of antibiotic [2]: grow similar to control bacteria without antibiotic; Average OD ([3]; control of Ab 1:10): 0.3308; Final OD Reading 1 ([3]; control of Ab 1:10): 0.2975; Final OD Reading 2 ([3]; control of Ab 1:10): 0.3641; Average OD ([3]; control of Ab 1:100): 0.4421; Final OD Reading 1 ([3]; control of Ab 1:100): 0.4216; Final OD Reading 2 ([3]; control of Ab 1:100): 0.4627
